Experimental data from ChEMBL document CHEMBL1147239, “New antioxidant C-glucosylxanthones from the stems of Arrabidaea samydoides” (J Nat Prod, 2003).

Test system: Radical scavenging activity
Experiment: Antioxidant activity assessed as DPPH radical scavenging activity after 30 mins
Assay type: functional

Compound	IC50 [µM]
O=C(/C=C/c1ccccc1)O[C@@H]1[C@@H](O)[C@H](O)[C@@H](CO)O[C@H]1c1c(O)cc2oc3cc(O)c(O)cc3c(=O)c2c1O	31.4
O=C(O[C@@H]1[C@@H](O)[C@H](O)[C@@H](CO)O[C@H]1c1c(O)cc2oc3cc(O)c(O)cc3c(=O)c2c1O)c1ccccc1	32.7
O=C(/C=C/c1ccc(O)cc1)O[C@@H]1[C@@H](O)[C@H](O)[C@@H](CO)O[C@H]1c1c(O)cc2oc3cc(O)c(O)cc3c(=O)c2c1O	25.4
O=C(/C=C/c1ccc(O)c(O)c1)O[C@@H]1[C@@H](O)[C@H](O)[C@@H](CO)O[C@H]1c1c(O)cc2oc3cc(O)c(O)cc3c(=O)c2c1O	17.8
O=c1c2cc(O)c(O)cc2oc2cc(O)c([C@@H]3O[C@H](CO)[C@@H](O)[C@H](O)[C@H]3O)c(O)c12 [MANGIFERIN]	35
O=C(O[C@@H]1[C@@H](O)[C@H](O)[C@@H](CO)O[C@H]1c1c(O)cc2oc3cc(O)c(O)cc3c(=O)c2c1O)c1ccc(O)cc1 [MURAXANTHONE]	30.7
C[C@@H]1O[C@@H](OC[C@H]2O[C@@H](Oc3c(-c4ccc(O)c(O)c4)oc4cc(O)cc(O)c4c3=O)[C@H](O)[C@@H](O)[C@@H]2O)[C@H](O)[C@H](O)[C@H]1O [RUTIN]	12.3
